Legend:
[1] = test system: CHO; experiment: Cell growth (Cell Titer-Glo viability), CHO; type: cell-based, Chinese hamster; settings: Cricetulus griseus; CHO Chinese hamster ovary cell, 72 hrs; read-out: GI50
[2] = test system: BaF3; experiment: Cell growth (Cell Titer-Glo viability), BaF3; type: cell-based; settings: BaF3 mouse primary B cell, 72 hrs
[3] = test system: BaF3-FL-EGFR-Del19; experiment: Cell growth (Cell Titer-Glo viability), BaF3-FL-EGFR-Del19; type: cell-based; settings: Mus musculus; BaF3-FL-EGFR-Del19 (EGFR delE746_A750 mutant kinase), 72 hrs
Method in brief: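 Luminescent ATP-based viability (CellTiter-Glo) measured viable cell number after compound exposure. Engineered lines were murine BaF3 made growth-factor independent by a TEL-kinase fusion and IL-3 removal. The human lung cancer lines harbor EGFR del19 (HCC827) or EGFR L858R (NCI-H3255).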

[4] = test system: EGFR protein (EGFR delE746_A750, PC-9); experiment: Effect on signaling pathway in cells, PC-9; type: cell-based, human; settings: PC-9 (EGFR delE746_A750), 4 h
From the text: In four cell lines (all purchased from ATCC) including non-small cell lung cancer cell line A549 (expressing wild-type EGFR gene), non-small cell lung cancer cell line H1975 (expressing EGFR L858R/T790M double mutant gene), non-small cell lung cancer cell line H3255 (expressing EGFR L858R mutant gene) and non-small cell lung cancer cell line PC-9 (expressing EGFR delE746_A750 mutant gene), the effect of Compound 1 on EGFR or other protein kinases related to signaling pathways of EGFR such as Stat3, AKT, ErK, eIF4E, 4EBP1, P70S6K was assessed by assaying a number of cellular biochemical and functional endpoints. […] The effect of Compound 1 on phosphorylation of Stat3Y705, AKT T308, AKT 5473, Erk T202/204, EGFR Y1068, P70S6K Thr389, eIF4E Ser209, Erk T202/204, 4EBP1 (Thr37/46) in these cell lines was assayed (FIGS. 1a to 1d).

[5] = test system: H3255; experiment: Effect on cell apoptosis (Western Blot, PARP and Caspase 3 cleavage), H3255; type: cell-based; settings: H3255 (EGFR L858R), 24 hours
From the text: (§1) In order to confirm whether the death of cells is through apoptosis or necrosis after administration of drugs, non-small cell lung cancer cell A549 (expressing wild-type EGFR gene), non-small cell lung cancer cell line H1975 (expressing EGFR L858R/T790M double mutant gene), non-small cell lung cancer cell line H3255 (expressing EGFR L858R mutant gene), non-small cell lung cancer cell line H3122 (expressing ALK gene) cell line, and non-small cell lung cancer cell line PC-9 (expressing EGFR delE746_A750 mutant gene) were tested for effect of Compound 1 on cleavage of poly ADP-ribose polymerase PARP which is a DNA repair enzyme and Caspase 3, which were closely related to cell apoptosis. […] Western Blot was used to detect the effect of various concentrations of drugs at various time points on cleavage of poly ADP-ribose polymerase PARP which is a DNA repair enzyme and Caspase 3.

[6] = test system: PC-9; experiment: Effect on cell apoptosis (Western Blot, PARP and Caspase 3 cleavage), PC-9; type: cell-based, human; settings: PC-9 (EGFR delE746_A750), 24 hours
From the text: as §1

[7] = test system: NCI-H2228; experiment: Growth of cancer cells (Cell Titer-Glo viability), NCI-H2228; type: cell-based; settings: Homo sapiens; NCI-H2228 (wild-type ALK), 72 hrs

Row | GI50 [2] [nM] | GI50 [3] [nM] | GI50 [7] [nM] | Structure (SMILES) | GI50 [1] [nM] | concentration able to significantly inhibit the phosphorylation of EGFR protein (also affects AKT and ERK phosphorylation) [4] [µM] | concentration at which evident cleavage of PARP and Caspase 3 could be observed [5] [µM] | concentration at which evident cleavage of PARP and Caspase 3 could be observed [6] [µM]
1 | 1400 | < 0.3 | – | C=CC(=O)Nc1cc(Nc2ncc(Cl)c(Nc3ccccc3S(=O)(=O)C(C)C)n2)c(OC)cc1N1CCN(CC)CC1 [Compound 1, N-(5-(5-chloro-4-(2-(isopropylsulfonyl)phenylamino)pyrimidin-2-ylamino)-2-(4-ethylpiperazin-1-yl)-4-methoxyphenyl)acrylamide] | 200 | 0.3 | 0.03 | 0.3
2 | 1200 | – | < 3 | C=CC(=O)Nc1cc(Nc2ncc(Cl)c(Nc3ccccc3S(=O)(=O)C(C)C)n2)c(OC)cc1N1CCCN(C)CC1 [Compound 10, N-(5-(5-chloro-4-(2-(isopropylsulfonyl)phenylamino)pyrimidin-2-ylamino)-4-methoxy-2-(4-methyl-1,4-homopiperazin-1-yl)phenyl)acrylamide] | 990 | – | – | –
